Experimental findings from US7091351B2, “Vanadium compounds for treating cancer” (Parker Hughes Institute, priority 1998, dated 2006) are described below.

What all share (type): cell-based, human
Experiment [1] concerns Tera-2 testicular cancer cells. In words: MTT cytotoxicity assay of vanadocenes, TERA-2 cells. The settings on record: 24 h, 1.9-250 μM. The procedure: (§1) Human testicular cancer cell lines, Tera-2 (embryonal carcinoma) and Ntera-2 (pluripotent embryonal carcinoma) were obtained from the American Type Culture Collection (ATCC) (Rockeville, Md.) and propagated in T-25, T-75, or T-150 cm^2 tissue culture flasks (Corning Corp., Corning, N.Y.) in McCoy's 5A medium and Dulbecco's modified Eagle's medium respectively. Both media were supplemented with 10% fetal calf serum (FCS), 4 mM glutamine, 100 U/ml penicillin G, and […] streptomycin sulfate. All tissue culture reagents were obtained from Life Technologies Inc. (GIBCO-BRL), Gaithersburg, Md. Cell lines were cultivated for a minimum of two passages after thawing prior to experimentation. Other cell lines that were used in this study were the human B-lineage acute lymphoblastic leukemia (ALL) cell line NALM-6. Uckun, F. M., Evans, W. E., Forsyth, C. J., Waddick, K. G., Tuel-Ahlgren, L., Chelstrom, L. M., Burkhardt, A., Bolen, J., Myers, D. E. Biotherapy of B-cell precursor leukemia by targeting genistein to CD19-associated tyrosine kinase. Science (Washington DC) 267:886–91, 1995; T-lineage ALL cell line MOLT-3, Waurzyniak, B., Shneider, E. A., Tumer, N., Yanishevski, Y., Gunther, R., Chelstrom, L., Wendorf, H., Myers, D. E., Irvin, J. D., Messinger, Y., Ek, O., Zeren, T., Chandan-Langlie, M., Evans, W. E., Uckun, F. M. In vivo toxicity, pharmacokinetics, and antileukemic activity of TXU (anti-CD7)-pokeweed antiviral protein immunotoxin. Clinical Cancer Research 3:881–890, 1997; AML cell line HL-60, Perentesis, J. P., Waddick, K. G., Bendel, A. E., Shao, Y., Warman, B. E., Chandan-Langlie, M., and Uckun, F. M. Induction of apoptosis in multi-drug resistant andradiation-resistant acute myeloid leukemia cells by a recombinant fusion toxin directed against the granulocyte macrophage colony stimulating factor receptor. Clin. Cancer Res. 3:347–355, 1997; breast cancer cell lines MDA-MB-231 and BT-20, Uckun, F. M., Narla, R. K., Jun, X., Zeren, T., Venkatachalam, T., Waddick, K. G., Rostostev, A., Myers, D. E. Cytotoxic activity of EGF-genstein against breast cancer cells. Clin. Cancer Res. 4:901–912, 1998; glioblastoma cell lines U87 and U373, Narla, R. K., Liu, X., Myers, D. E., and Uckun, F. M. 4-(3′-Bromo-4′hydroxylphenyl)-amino-6,7-dimethoxyquinazoline (WHI-P154): A novel quinazoline derivative with potent cytotoxic activity against human glioblastoma cells. Clin. Cancer Res. 4:1405–1414, 1998.
(§2) MTT (3-[4,5-dimethyl thiazol-2-yl]-2,5-diphenyltetrazolium bromide)-based colorimetric assays were used for evaluation of the cytotoxicity of vanadocene compounds. Mosmann, T. Rapid colorimetric assay for cellular growth and survival: application to proliferation and cytotoxicity assays. J. Immunol. Methods, 65: 55–63, 1983. Briefly, cells were harvested with 0.125% (w/v) trypsin-0.02% EDTA (GIBCO-BRL) from exponential-phase maintenance cultures and centrifuged (300 g×5 min). After suspension and counting, cells were dispensed within triplicate 96-well tissue culture plates in 100 μl volumes. After 24 h incubation, the culture medium was discarded and replaced with 100 μl of fresh medium containing serial two-fold dilutions of drugs in medium to yield 1.9 μM to 250 μM. All compounds were reconstituted in DMSO to a concentration of 100 mM, and the stock solution was made fresh for each experiment. Control wells consisted of medium containing 0.25% of DMSO alone were used for solvent control. Culture plates were then incubated for 24 h before adding 10 μl of MTT solution (5 mg/ml in PBS) to each well. Wells containing only medium and MTT were used as controls for each plate. The tetrazolium/formazan reaction was allowed to proceed for 4 h at 37° C., and then 100 μl of the solubilization buffer (10% sodium dodecyl sulfate in 0.1% HCl) were added to all wells and mixed thoroughly to dissolve the dark blue formazan crystals. […]
(Formazan colour is commonly taken as a measure of viable cells.)

In experiment [2] the test system is Ntera-2 testicular cancer cells. In words: MTT cytotoxicity assay of vanadocenes, NTERA-2 cells. To be noted: 24 h, 1.9-250 μM. The procedure: as §1, §2
Experiment [3] relates to U373 glioblastoma cells. In words: MTT cytotoxicity assay of vanadocenes, U373 cells. The settings on record: 24 h. The procedure:
as §1, §2

The subject of experiment [4] is NALM-6 B-lineage acute lymphoblastic leukemia cells. Description: MTT cytotoxicity assay of vanadocenes, NALM-6 cells. To be noted: 24 h. The method, then:
as §1
as §2, with “control.” for “control. Culture plates were then incubated for 24 h before adding 10 μl of MTT solution (5 mg/ml in PBS) to each well. Wells containing only medium and MTT were used as controls for each plate. The tetrazolium/formazan reaction was allowed to proceed for 4 h at 37° C., and then 100 μl of the solubilization buffer (10% sodium dodecyl sulfate in 0.1% HCl) were added to all wells and mixed thoroughly to dissolve the dark blue formazan crystals.”

Experiment [5] concerns Tera-2 testicular cancer cells. In words: Flow cytometric TUNEL apoptosis assay, TERA-2 cells. The settings on record: 24 h, TUNEL-positive nuclei. The procedure: (§3) A flow cytometric two-color terminal […] transferase (TdT)-mediated digoxigenin-uridine triphosphate (dUTP) nick-end labeling assay (TUNEL) was employed to detect apoptotic nuclei. Gavrieli, Y., Sherman, Y., Ben-Sasson, S. A. Identification of programmed cell death in situ via specific labeling of nuclear DNA fragmentation. J. Cell Biol., 119: 493–501, 1992. Exponentially growing cells (10^6/ml) were incubated in DMSO alone (0.1%) or treated with 100 μM each of the 16 vanadocenes (VDB, VDC, VMDC, VDI, VDA, VDCN, VDOCN, VDSCN, VDSeCN, VDT, VDCO, VDFe, VD(acac), VDH, VD(dpy), and VD(dtc) in 0.1% DMSO for 24 h. Cells were washed in PBS, fixed in 4% paraformaldehyde in PBS for 15 min on ice. Following two washings in PBS, they were permeabilized with 0.1% Triton X-100 in 0.1% sodium citrate for 2 min on ice, and washed twice in PBS. Labeling of exposed 3′-hydroxyl (3′-OH) ends of fragmented nuclear DNA was performed using TdT and fluorescein isothiocyanate (FITC)-conjugated dUTP according to the manufacturer's recommendations (Boehringer Mannheim, Indianapolis, Ind.). Cells were counterstained with 5 μg/ml PI. Control samples included: (i) untreated cells; (ii) cells incubated with the reaction mixture without the TdT enzyme. Cells were analyzed with a FACS Calibur flow cytometer (Becton Dickinson, Mountain View, Calif.). Relative DNA content (PI) was detected with band-pass filter 585/42, and dUTP incorporation (FITC) was detected with band-pass filter 530/30. Fluorescence was compensated for in the acquisition software using single-label control samples. Data were acquired in listmode, gated to 10,000 events per sample, and analyzed with the use of CELLQuest software program (Becton Dickinson). […] Vanadocene-induced apoptosis is shown by an increase in the number of cells staining with FITC-dUTP. The M1 and M2 gates were used to demarcate non-apoptotic and apoptotic PI-counterstained cell populations, respectively. TUNEL assays were performed using two testicular cell lines Tera-2 and Ntera-2 following exposure to each of the 16 vanadocenes. In other experiments, MC540 binding (as an early marker of apoptosis) and PI permeability (as a marker of advanced stage apoptosis) were simultaneously measured in human cancer cells 24 hours after exposure to vanadocenes, as previously described. Uckun, F. M., Narla, R. K., Jun, X., Zeren, T., Venkatachalam, T., Waddick, K. G., Rostostev, A., Myers, D. E. Cytotoxic activity of EGF-genstein against breast cancer cells. Clin. Cancer Res. 4:901–912, 1998. Vassilev, A., Ozer, Z., Navara, C., Mahajan, S., and Uckun, F. M. Bruton's tyrosine kinase as an inhibitor of the Fas/CD95 death-inducing signaling complex. J. Biol. Chem. 274:1646–56, 1999. Whole cells were analyzed using a FACStar Plus flow cytometer (Becton Dickinson, San Jose, Calif.). All analyses were done using 488 nm excitation from an argon laser. MC540 and PI emissions were split with a 600 nm short pass dichroic mirror and a 575 nm band pass filter was placed in front of one photomultiplier tube to measure MC540 emission and a 635 nm band pass filter was used for PI emission.

The test system of experiment [6] is Ntera-2 testicular cancer cells. In words: Flow cytometric TUNEL apoptosis assay, NTERA-2 cells. To be noted: 24 h, TUNEL-positive nuclei. The method, then: as §3
The subject of experiment [7] is HL60 acute myeloid leukemia cells. In words: MC540 binding / PI permeability apoptosis assay, HL-60. The settings on record: 100 μM, 24 hours. The method, then:
(§4) A flow cytometric two-color terminal […] transferase (TdT)-mediated digoxigenin-uridine triphosphate (dUTP) nick-end labeling assay (TUNEL) was employed to detect apoptotic nuclei. Gavrieli, Y., Sherman, Y., Ben-Sasson, S. A. Identification of programmed cell death in situ via specific labeling of nuclear DNA fragmentation. J. Cell Biol., 119: 493–501, 1992. […] Cells were analyzed with a FACS Calibur flow cytometer (Becton Dickinson, Mountain View, Calif.). Relative DNA content (PI) was detected with band-pass filter 585/42, and dUTP incorporation (FITC) was detected with band-pass filter 530/30. Fluorescence was compensated for in the acquisition software using single-label control samples. Data were acquired in listmode, gated to 10,000 events per sample, and analyzed with the use of CELLQuest software program (Becton Dickinson). […] In other experiments, MC540 binding (as an early marker of apoptosis) and PI permeability (as a marker of advanced stage apoptosis) were simultaneously measured in human cancer cells 24 hours after exposure to vanadocenes, as previously described. […] Whole cells were analyzed using a FACStar Plus flow cytometer (Becton Dickinson, San Jose, Calif.). […]

In experiment [8] the test system is MDA-MB-231 breast cancer cells. Description: MC540 binding / PI permeability apoptosis assay, MDA-MB-231. To be noted: 100 μM, 24 hours. The method, then: as §4
The subject of experiment [9] is BT-20 breast cancer cells. Description: MC540 binding / PI permeability apoptosis assay, BT-20. The settings on record: 100 μM, 24 hours. The method, then:
as §4

The subject of experiment [10] is U87 glioblastoma cells. Description: MC540 binding / PI permeability apoptosis assay, U87. The settings on record: 100 μM, 24 hours. The procedure: as §4

pIC50: −log10 of the molar value.

In [1], `C1=C[CH]([V+2][CH]2C=CC=C2)C=C1.[N-]=C=[Se].[N-]=C=[Se]` [VDSeCN, VCp2(NCSe)2] had a negative-log IC50 (pIC50) of 5.05. This molecule showed a negative-log IC50 (pIC50) in experiment [2] of 4.66. In experiment [3], the pIC50 is 5.70. Moreover, the negative logarithm of the IC50 (pIC50) in experiment [4] was 5.52. In addition, in [5], the “% Apoptosis at 100 μM TERA-2” value is given as 78 (75, 80) %. The “% Apoptosis at 100 μM NTERA-2” value in experiment [6] is given as 99.6 ± 0.2 (N = 4) %. In addition, in [7], the “cells with dual MC540/PI fluorescence (advanced stage apoptosis), HL-60” value was determined as 51%; the “total percentage of apoptotic cells (early and advanced stage), HL-60” value is 98%. Further, in [8], the “cells with dual MC540/PI fluorescence (advanced stage apoptosis), MDA-MB-231” value came to 67%; the “total percentage of apoptotic cells (early and advanced stage), MDA-MB-231” value amounted to 72%. For the same molecule, in [9], the “cells with dual MC540/PI fluorescence (advanced stage apoptosis), BT-20” value is recorded as 40%; the “total percentage of apoptotic cells (early and advanced stage), BT-20” value came to 61%. For the same molecule, in experiment [10], the “cells with dual MC540/PI fluorescence (advanced stage apoptosis), U87” value is on record as 79%; the “total percentage of apoptotic cells (early and advanced stage), U87” value is 90%.

The pIC50 is −log10 of the IC50, conventionally taken in molar units. Low values mean a large IC50, high ones a small IC50.
